# “Also recorded” adds a separate entry of the source.
# Legend:
# AGRP in the ARC = assay: AGRP expression and feeding of chow-fed mice given Bobcat339 in drinking water; format: in vivo, mouse
# Source text: It has previously been shown that TET3 expression is aberrantly elevated in the livers of humans and mice with type 2 diabetes and that liver-specific, siRNA-mediated TET3 knockdown improves glucose homeostasis both in dietary and genetic mouse models of diabetes (Li D. et al., 2020, Nature Communications, 11:342). Bobcat339 (4-Amino-1-[1,1′-biphenyl]-3-yl-5-chloro-2(1H)-pyrimidinone) is a synthetic cytosine derivative capable of binding competitively with 5mC to the active sites of [COMPOUND LEFT OUT] and inhibits their enzymatic activity in cultured neuronal cells (Chua G. N. L. et al., 2019, ACS Medicinal Chemistry Letters, 10:180-185). Although not bound by any particular theory, it was hypothesized that Bobcat339 has an anti-diabetic effect owing to its ability to inhibit [COMPOUND LEFT OUT]. Thus, the present studies employed high fat diet (HFD)-induced diabetic mice that were treated with Bobcat339 in drinking water for two weeks. […] Thus, nondiabetic mice fed on regular chow were treated with Bobcat339 in drinking water. Four days later, ARCs were isolated from ad libitum-fed mice and analyzed. […]
# Immunofluorescence Postfixed sections were cut into 40 μm-thick sections. […] The sections were coverslipped and visualized using a Keyence BZ-X700 fluorescence microscope. The fluorescence signals from GFP and mCherry in AgRP neurons were detected without immunostaining. […]
# AGRP, NPY, and VGAT = assay: AGRP, NPY and VGAT expression in the ARC of mice; format: in vivo, mouse; settings: Bobcat339 vs. vehicle mice
# Protocol: The GFP construct used for tagging AgRP neurons labels almost exclusively the perikaryon. The presence of AGRP, NPY, and VGAT outside the perikarya reflected the fact that these fast-firing neurons transport their neuromodulatory products rabidly to the neuronal processes.
# Bobcat339 powder (Sigma-Aldrich, SML2611) was freshly dissolved in DMSO (vehicle) at a concentration of 50 mg/mL and filtered through a 0.22 micron. It was further diluted with 1×PBS to a final concentration of 0.5 mg/mL before injections. Mice were injected intraperitoneally with Bobcat339 at 1 mg/kg, 2.5 mg/kg, or 4 mg/kg.
# Total RNAs were extracted from neuronal cells or homogenized hypothalamic arcuate nucleus tissue samples using PureLink RNA Mini Kit (Ambion, 12183025). cDNA was synthesized using PrimeScript RT Reagent Kit in a 20 μl reaction containing 0.5-1 μg of total RNA. Real-time quantitative PCR was performed in a 15 μl reaction containing 0.5-1 μl of cDNA using SsoAdvanced Universal SYBR Green Supermix in a Bio-Rad iCycler. Specificity was verified by melting curve analysis. The Ct values of each sample were used in the post-PCR data analysis. […]
# The immunofluorescence for brain slices was conducted using previous methods (18). […] The sections were coverslipped and scoped using a Keyence BZ-X700 fluorescence microscope. The fluorescence signals from GFP in AgRP neurons were detected without immunostaining.
structure (smiles),measurement,setting,value
"Nc1nc(=O)n(-c2cccc(-c3ccccc3)c2)cc1Cl [Bobcat339, 4-Amino-1-[1,1′-biphenyl]-3-yl-5-chloro-2(1H)-pyrimidinone]",AGRP expression in the ARC,"AGRP in the ARC; Bobcat339 100 mg/kg per day in drinking water, 4 days, 100 mg/kg/day",increased AGRP expression in the ARC; also recorded: increased AGRP peptide; also recorded: increased AGRP production
same,feeding,AGRP in the ARC; mice exposed to Bobcat339,induced hyperphagia
same,"AGRP, NPY, and VGAT protein in the ARC","AGRP, NPY, and VGAT","increased productions of AGRP, NPY, and VGAT; also recorded: a marked increase in their expressions"
same,"Agrp, Npy and Slc32a1 mRNA in the ARC","AGRP, NPY, and VGAT","Increases in the mRNA levels of Agrp, Npy and Slc32a1; also recorded: increased expressions of Agrp, Npy, and Slc32a1"
